From paper PMC11134608, “UBR5 forms ligand-dependent complexes on chromatin to regulate nuclear hormone receptor stability” (Molecular cell, 2023)
Residues, ends and D or L forms follow the SMILES beside them. *: point of attachment. Cbz = O=C(OCc1ccccc1)*

Assays:
3Ub~RARA/RXRA substrate = assay: In vitro ubiquitylation of pseudo-ubiquitylated RARA/RXRA; format: biochemical, human
From the text: Input UBR5 variants -50 RARA/RXRA (µM)[NCOA1 peptide] uM
250 NCOA1 peptide (fluorescein-labeled probe): 5-FAM-[…]
200 LxxLLs UBR5 peptides (unlabeled): […]
Unlabelled peptide (µM)UBR5 peptide (µM)
0.0 +RARA/RXRA + retinoic acid
H A-1 A-2 Name Expressed UBR5 construct […]
round kDa WT LxxA LxxA WT 1-2799 kDa Input Backg WT LxxAA-1 LxxAA-2 ∆ UBR ∆ tandem ∆ UBA 250 […]
Figure S5. Interaction ofUBR5with NRs and LxxLL motifs,Related to Figure 3
(§1) A. RARAreporter degradation in HEK293cells withCRISPR-editedUBR5 deficientof itsHECTdomain inthepresence or absenceof ATRA (n=3 two-sided ttest).B. Ubiquitylation assayof a pseudo-primedRARA/RXRAsubstrate, generated as His-3Ub~RARA and His-3Ub~RXRA linearfusions in E.coli.Wild type UBR5 can rapidly branch and extend Ub chains on the substrate, however indicated mutants of the UBA domain severely hinder chain extension. C. Fluorescence polarization (FP) experiment showing forward titrationof RARA/RXRA intoa fluorescein-labelled NCOA1 peptide (residues 686-698). […]
Fluorescence polarization experiments depicting competitive reverse titrationwith indicated peptides against a pre-formed complex of RARA/RXRA with a fluorescein-labelled peptide of NCOA1 (residues 686-698) in the presence of ATRA. Titrations were performed in duplicate and binding constants determined after converting fluorescence polarization values tofraction bound of originalcomplex. […]

[1] = test system: ATRA-induced gene expression in NB4 cells; assay: RNA sequencing of NB4 cells; format: cell-based, human; conditions: NB4, MG132 or DMSO, ATRA 0, 8, 24 h
Protocol: Cell lines were expanded, treated with ligand, and incubated at 37C. Cells were pelleted by centrifugation for 5 minutes, washed with cold PBS, and RNA was isolated by RNeasy kit (Qiagen) per manufacturer’s instructions. RNA was sent to Novogene for library preparation and sequencing, or prepared for sequencing (NEBNext, New England Biolabs) and sequenced on an Illumina NextSeq 550 sequencer.
Paired-end reads were aligned to the hg38.p13[81],[82] reference genome with the STAR[83] (v5.2.7b) aligner as part of the RSEM[99] command line tool. Gene transcript abundance was further quantified from aligned fragments using RSEM to generate a gene-by-sample matrix of expected counts. Differential expression was tested, as with the ChIP-seq data, using the DESeq[88],[93]2 and ashr[94] pipeline, this time calculating sample-specific scale factor offset using the method of median-ratio as implemented in the R package EBSeq[100] (v1.36.0). For plotting in heatmaps, genes were selected based on ChIP-seq peak annotation and subset.

[2] = test system: RARA/RXRA heterodimer (pre-formed complex with fluorescein-labelled NCOA1 peptide); assay: Fluorescence polarization, competitive reverse titration of unlabeled peptides; format: binding, human; conditions: with ATRA; 10 nM tracer, 0.5 μM RARA/RXRA, competitor 0–85 μM; 20 mM HEPES pH 7.4, 110 mM NaCl; room temperature; variable slope fit; duplicates
Protocol: Fluorescein-labelled NCOA1 peptide residues […] (Flc-[…]) was used as a fluorescent tracer as described previously.[71] Increasing amounts of RARA/RXRA heterodimer (0.1–26 μM final concentration) were mixed with tracer (10 nM final concentration) in a 384-well microplate (784076, Greiner) at room temperature. The interaction was measured in a final buffer containing 20 mM HEPES pH 7.4, 110 mM NaCl, 500 μM TCEP, 1% Glycerol, 0.1% (v/v) pluronic acid with or without 100 μM all-trans-retinoic acid. A PHERAstar FS microplate reader (BMG Labtech) equipped with a fluorescence polarization filter unit was used to determine changes in fluorescence polarization. The polarization units were converted to fraction bound, defined as (mPfree – mP) / (mPfree – mPbound), as described previously.[72] […]
as §1, with “C.” left out

RARA and UBR5 = assay: BRET assay of RARA and UBR5; format: cell-based, human; conditions: ± 9-cis RA, n = 3
From the text: Bioluminescence resonance energy transfer (BRET) experiments were done using the NanoBRET PPI kit (Promega, N1821) according to manufacturer’s instructions.

UBR5-RARA = assay: UBR5 pull-down competition with NCOA1; format: binding, human; conditions: NCOA at 0.5, 5 and 10× molar excess relative to UBR5, with ATRA
From the text: Figure 2. UBR5 competes with nuclear coactivators for the conserved hydrophobic cleft of NRs (A) Schematic of RARA domain architecture; NTD, N-terminal domain; DBD, DNA-binding domain; LBD, ligand-binding domain. (B) Degradation of RARA reporters containing 4–5 surface-exposed alanine mutations per helix, relative to untreated (DMSO) (n = 3 two-sided t test). See Figure S2 for detailed amino acid substitutions. (C) Degradation of RARA reporters containing glutamate-substituted residues within the H3/H4 hydrophobic cleft. (n = 3 two-sided t test). […] FLAG-UBR5 (15 pmol) was pre-bound to a large excess of His-RARA in the presence of ATRA and excess RARA protein washed away. Increasing amounts of full-length NCOA1 protein were then added to outcompete the UBR5-RARA interaction. NCOA was titrated with a 0.5, 5, and 10× molar excess relative to UBR5. (F) Relative abundances in RARA-GFP IP-MS of NCOR1, NCOA1, and UBR5 normalized to RARA abundance following 0, 4, and 16 h of ATRA treatment.
12 μL of FLAG M2 slurry were equilibrated with binding buffer (25 mM HEPES pH 7.4, 125 mM NaCl, 0.05% TWEEN-20). The resin was pelleted and excess buffer removed. 60 μL of fresh binding buffer was re-added, followed by addition of 15 pmol (2.5 μL ofa6 μM solution) of purified FLAG-UBR5 protein and incubated on a rotating wheel at 4°C for 60–90 minutes. […]

UBR5^V196K: UBR5 with a substitution at the ubiquitin-binding interface
processivity in ubiquitylation assay (3Ub~RARA/RXRA substrate): severely hindered processivity in ubiquitylation assays

CC(C)C[C@@H](C=O)NC(=O)[C@H](CC(C)C)NC(=O)[C@H](CC(C)C)NC(=O)OCc1ccccc1 [MG132] (Cbz-Leu-Leu-Leu-aldehyde)
effect of proteasomal inhibition (MG132) on ATRA-induced transcription [1]: strongly decreased ATRA-induced transcription

LQPYLRELLSAKD [UBR5 aa1098]
Kapp [2]: 41.4 ± 2.8 µM

CC1=C(/C=C/C(C)=C\C=C\C(C)=C\C(=O)O)C(C)(C)CCC1 [RA]
RARA/UBR5 BRET luminescence (RARA and UBR5): exhibited more luminescence than controls

NCOA1: full-length NCOA1 protein
UBR5 binding to RARA in presence of excess NCOA1 (UBR5-RARA): impaired by an excess of full-length NCOA1

RLDLLYRLLTATN [UBR5 aa1251]
Kapp [2]: 3.1 ± 0.1 µM

UBR5^Δ83–347: UBR5 lacking the UBA insertion entirely
processivity in ubiquitylation assay (3Ub~RARA/RXRA substrate): severely hindered processivity in ubiquitylation assays
